Data as given in patent US20250064890A1, “PROTEIN COMPOSITIONS FOR THE TREATMENT OF INFLAMMATORY DISEASES” (Unichem Laboratories Limited, priority 2021, published 2025).

Assays:
Interleukin-1β = Interleukin-1β in jugular mucosa (ELISA), 5-FU induced OM in hamsters; assay type: in vivo, golden Syrian hamsters; conditions: G3, 0.1 mg/Animal
Procedure: (§1) To induce OM, animals were administered (except normal control) 5-Fluorouracil (5-FU) by intraperitoneal route at doses of 60 mg/kg & 40 mg/kg respectively on first two days. On Day 4, under anesthesia, with aim of enhancing OM, mechanical irritation of the oral mucosa were done using wire brush. Treatment was initiated from Day 4 to Day 12. For group 3 animals 100 μl of vehicle comprising of standard drug Dexamethasone at 0.1 mg was instilled in buccal cheek pouch. For group 4, 5 and 6 animals 100 μl of vehicle comprising of SEQ ID NO. 2 at 0.25 mg, 0.5 mg & 1 mg, respectively was instilled in buccal cheek pouch. At the end of treatment period, cheek pouch of the hamsters was exposed, Mucositis scoring was carried out and images were captured. The animals were then humanely sacrificed, cheek pouch/jugular mucosa were isolated and used for biomarker estimation and histopathological investigation by using ELISA method and Hematoxylin and Eosin (H&E) staining, respectively.
(§2) Further, for biomarker estimation jugular mucosa was dissected out, tissue weighed and stored in ice cold 1×PBS. 100 mg of tissue was taken and in 1 ml of 1×PBS buffer. Supernatant of homogenate was used for analysis of TNF-α and Interleukin-1β using ELISA method as per manufacturers instruction. The levels of TNF-α and Interleukin-1β are given in Table 13, FIG. 2 and Table 14, FIG. 3, respectively.

[1] = tested on: 5-Fluorouracil induced OM; experiment: Histopathology score of cheek pouch, 5-FU induced OM in hamsters; assay type: in vivo, golden Syrian hamsters; conditions: G3, 0.1 mg/Animal; scale 1-5
Procedure: as §1
For histopathology the oral mucosa tissues were sectioned 5 μm thickness and stained with hematoxylin-eosin staining. For study histopathological the sections were analyzed by light microscopy.
The pouch/jugular mucosa were observed and scored for infiltration of inflammatory cells, vasodilatation, presence of hemorrhagic areas, edema, ulcerations, and abscesses.

[2] = Body weight change in 5-FU induced OM hamsters; assay type: in vivo, golden Syrian hamsters; conditions: G3, 0.1 mg/Animal in buccal cheek pouch, Day 4 to Day 12, with respect to Day 4
Procedure: In-vivo experiments conducted in healthy golden Syrian hamsters wherein animals were grouped as below:
as §1
Body weight of each animal was recorded daily till the end of experiment. Percentage change in body weight of the animals was calculated by using formula with respect to Day 4.

TNF-α = TNF-α in jugular mucosa (ELISA), 5-FU induced OM in hamsters; assay type: in vivo, golden Syrian hamsters; conditions: G3, 0.1 mg/Animal
Procedure: as §1, §2

[3] = tested on: 5-Fluorouracil induced OM; experiment: Mucositis severity score, 5-FU induced OM in hamsters; assay type: in vivo, golden Syrian hamsters; conditions: G3, 0.1 mg/Animal, after 12 days; scale 0-5
Procedure: as §1
Mucositis severity was scored as given below: • Cheek pouch completely healthy—0; Mild erythema—1; • Severe erythema and superficial erosion—2; Formation of ulcers in one or more places—3; Cumulative ulcer formation about 50% of cheek pouch surface area—4; Complete ulceration of the cheek pouch mucosa—5.

[4] = tested on: oral (buccal) mucosa cells (TR146); experiment: Cytoprotective effect against 5-FU induced damage (MTT); assay type: cell-based, human
Procedure: The cell viability was assessed by (MTT) assay and compared with positive control (Cells treated with Amifostine, EGCG and EGF and negative assay (untreated cells), wherein the control was the cells that underwent chemotherapy/radiotherapy.
The protective effect of the recombinant lectin on survival of TR146 cells against 5-FU induced damage was determined using following calculations:
The viability of cells was determined as: % Cell viability=(100−% Cytotoxicity); • where, the percentage cytotoxicity corresponding to each treatment was calculated as: % Cytotoxicity=[(R−X)/R]*100, wherein X=Absorbance of cells treated with 5-FU or radiation damage/TI+5-FU, R=Absorbance of Control cells (Untreated) and Percentage protection was calculated as:
{(Absorbance of TI+5-FU or radiation)−(Absorbance of 5-FU or radiation alone)/(Absorbance of Untreated)−(Absorbance of 5-FU alone)}*100

Which “IL-1β levels, Mean” value (Interleukin-1β) does the source give for `C[C@@H]1C[C@H]2[C@@H]3CCC4=CC(=O)C=C[C@]4(C)[C@@]3(F)[C@@H](O)C[C@]2(C)[C@@]1(O)C(=O)CO` [Dexamethasone, reference compound] here?
Its value is 163.96.

And the “IL-1β levels, % Decrease vs G2” value (Interleukin-1β; G2 = OM + Vehicle)?
The value was 5.59%.

And the “Histopathology score, Mean” value [1]?
Its value is 1.6.

What about the “decrease of body weight” value [2] of the same compound?
The value was 6.59%.

What about the “TNF-α levels, Mean” value (TNF-α) of the same compound?
The value was 134.29 pg/mL.

What about the “TNF-α levels, % Decrease vs G2” value (TNF-α; G2 = OM + Vehicle) of the same compound?
Its value is −8.29%.

And the Mucositis score [3]?
Its Mucositis score is 2.00±0.3.

Which “% Protection” value ([4]; 0.01 μM + 5-FU (5 mM)) does the source give for `O=C(O[C@@H]1Cc2c(O)cc(O)cc2O[C@@H]1c1cc(O)c(O)c(O)c1)c1cc(O)c(O)c(O)c1` [EGCG, Epigallocatechin gallate] here?
Its value is 19.5%.

What about the “% cytotoxicity” value ([4]; 0.01 μM + 5-FU (5 mM)) of the same compound?
The value was 47%.

And the “% viability” value ([4]; 0.01 μM + 5-FU (5 mM))?
The value was 53%.

And the “% Protection” value ([4]; 0.1 μM + 5-FU (5 mM))?
Its value is 42.4%.

And the “% cytotoxicity” value ([4]; 0.1 μM + 5-FU (5 mM))?
Its value is 33.6%.

What about the “% viability” value ([4]; 0.1 μM + 5-FU (5 mM)) of the same compound?
Its value is 66.4%.

And the “% Protection” value ([4]; 1 μM + 5-FU (5 mM))?
Its value is 47.9%.

And the “% cytotoxicity” value ([4]; 1 μM + 5-FU (5 mM))?
The value was 30.4%.

And the “% viability” value ([4]; 1 μM + 5-FU (5 mM))?
Its value is 69.6%.

What about the “% Protection” value ([4]; 10 μM + 5-FU (5 mM)) of the same compound?
The value was 24.2%.

And the “% cytotoxicity” value ([4]; 10 μM + 5-FU (5 mM))?
Its value is 44.2%.

What about the “% viability” value ([4]; 10 μM + 5-FU (5 mM)) of the same compound?
Its value is 55.8%.
